Test results published in US20250154144A1 (CHILDREN'S HOSPITAL MEDICAL CENTER, priority 2021, published 2025).
Like-named read-outs stand apart in the source and are kept apart here. Blank lines part the entries; values can stand above or below the compound they belong to.

What was measured:
FLT3 [1] = biological target: T1, FLT3 (Homo sapiens, UniProt P36888); experiment: RBC HotSpot Kinase Assay, FLT3
T1 sequence (P36888 610-943 limits assumed): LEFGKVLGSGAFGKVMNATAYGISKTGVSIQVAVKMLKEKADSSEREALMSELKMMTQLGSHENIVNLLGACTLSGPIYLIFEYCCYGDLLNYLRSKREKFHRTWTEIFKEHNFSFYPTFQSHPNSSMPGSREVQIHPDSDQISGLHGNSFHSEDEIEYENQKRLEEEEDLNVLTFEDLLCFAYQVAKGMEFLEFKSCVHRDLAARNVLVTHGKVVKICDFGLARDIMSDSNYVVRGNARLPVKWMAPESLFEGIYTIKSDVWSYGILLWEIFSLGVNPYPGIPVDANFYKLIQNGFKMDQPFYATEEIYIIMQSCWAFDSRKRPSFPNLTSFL

IRAK1 = IRAK1 (Homo sapiens, UniProt P51617); experiment: RBC HotSpot Kinase Assay, IRAK1; details: IRAK1 IC50
IRAK4 [2] = biological target: T2, IRAK4 (Homo sapiens, UniProt Q9NWZ3); experiment: RBC HotSpot Kinase Assay, IRAK4; details: IRAK4 IC50
T2 sequence (Q9NWZ3 1-460): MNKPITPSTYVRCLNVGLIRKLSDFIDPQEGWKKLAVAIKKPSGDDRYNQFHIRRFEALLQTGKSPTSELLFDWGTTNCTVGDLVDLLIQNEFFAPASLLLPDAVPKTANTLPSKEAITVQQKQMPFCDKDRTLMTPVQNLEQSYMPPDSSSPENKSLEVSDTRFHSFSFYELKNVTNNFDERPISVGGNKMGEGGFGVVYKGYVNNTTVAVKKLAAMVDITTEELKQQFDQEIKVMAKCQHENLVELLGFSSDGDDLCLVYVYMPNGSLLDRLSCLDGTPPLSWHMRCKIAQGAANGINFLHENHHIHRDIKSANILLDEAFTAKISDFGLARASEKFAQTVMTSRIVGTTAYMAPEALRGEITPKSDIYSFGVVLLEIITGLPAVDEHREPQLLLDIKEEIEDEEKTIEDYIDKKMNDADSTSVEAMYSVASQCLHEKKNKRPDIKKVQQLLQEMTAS

MOLM14 D835Y cells = experiment: cells; assay type: cell-based; details: 48 hours, Cell Titer Glo, read-out: MOLM14 D835Y IC50
MOLM14 F691L cells = experiment: cells; assay type: cell-based; details: 48 hours, Cell Titer Glo, read-out: MOLM14 F691L IC50
IRAK4 [3] = biological target: T2, IRAK4; experiment: Reaction Biology NanoBRET target engagement assay in HEK-293 cells, IRAK4; details: NanoBRET IRAK4 IC50, HEK-293 cells
FLT3 [4] = biological target: T3, FLT3 (Homo sapiens, UniProt P36888); experiment: Reaction Biology NanoBRET target engagement assay in HEK-293 cells, FLT3
T3 sequence (P36888 27-993): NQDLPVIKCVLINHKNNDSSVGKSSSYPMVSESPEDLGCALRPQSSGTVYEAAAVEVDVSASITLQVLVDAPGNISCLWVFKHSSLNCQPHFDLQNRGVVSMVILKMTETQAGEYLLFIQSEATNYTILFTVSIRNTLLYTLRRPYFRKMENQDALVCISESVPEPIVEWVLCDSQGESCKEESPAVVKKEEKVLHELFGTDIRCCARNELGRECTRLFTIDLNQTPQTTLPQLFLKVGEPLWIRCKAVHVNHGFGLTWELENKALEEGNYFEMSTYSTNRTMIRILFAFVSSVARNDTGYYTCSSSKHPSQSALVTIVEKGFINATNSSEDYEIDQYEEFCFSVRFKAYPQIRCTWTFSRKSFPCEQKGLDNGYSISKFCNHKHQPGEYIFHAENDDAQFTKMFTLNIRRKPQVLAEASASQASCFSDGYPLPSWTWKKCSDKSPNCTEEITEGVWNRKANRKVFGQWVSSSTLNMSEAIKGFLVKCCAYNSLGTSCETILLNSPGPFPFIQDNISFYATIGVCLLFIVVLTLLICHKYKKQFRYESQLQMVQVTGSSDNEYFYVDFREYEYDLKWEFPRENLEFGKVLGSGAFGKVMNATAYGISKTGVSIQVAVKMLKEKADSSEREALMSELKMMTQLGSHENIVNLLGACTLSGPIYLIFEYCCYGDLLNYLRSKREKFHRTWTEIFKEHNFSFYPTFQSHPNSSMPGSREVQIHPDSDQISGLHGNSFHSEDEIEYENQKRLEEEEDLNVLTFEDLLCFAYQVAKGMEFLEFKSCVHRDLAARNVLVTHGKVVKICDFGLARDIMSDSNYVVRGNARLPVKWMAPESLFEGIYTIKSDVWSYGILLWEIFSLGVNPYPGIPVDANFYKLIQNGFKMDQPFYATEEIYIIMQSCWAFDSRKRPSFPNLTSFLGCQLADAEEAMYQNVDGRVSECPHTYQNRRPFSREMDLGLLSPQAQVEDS

MOLM14(D835Y) cells = assay type: cell-based; details: MOLM14(D835Y) cells; for Excess HSA Score: 10 × 10
THP1 cells = experiment: Combination drug screening, Cell Titer Glo, 10 × 10 matrix, THP1 cells; assay type: cell-based; details: THP1 cells; for Excess HSA Score: 10 × 10
[5] = NanoBRET FLT3 IC50, HEK-293 cells
[6] = combination with (+)-BAY-1251152
[7] = combination with Eprenetapopt/APR-246
[8] = combination with Venetoclax (ABT-199)

Sequence of IRAK1 (P51617 whole entry): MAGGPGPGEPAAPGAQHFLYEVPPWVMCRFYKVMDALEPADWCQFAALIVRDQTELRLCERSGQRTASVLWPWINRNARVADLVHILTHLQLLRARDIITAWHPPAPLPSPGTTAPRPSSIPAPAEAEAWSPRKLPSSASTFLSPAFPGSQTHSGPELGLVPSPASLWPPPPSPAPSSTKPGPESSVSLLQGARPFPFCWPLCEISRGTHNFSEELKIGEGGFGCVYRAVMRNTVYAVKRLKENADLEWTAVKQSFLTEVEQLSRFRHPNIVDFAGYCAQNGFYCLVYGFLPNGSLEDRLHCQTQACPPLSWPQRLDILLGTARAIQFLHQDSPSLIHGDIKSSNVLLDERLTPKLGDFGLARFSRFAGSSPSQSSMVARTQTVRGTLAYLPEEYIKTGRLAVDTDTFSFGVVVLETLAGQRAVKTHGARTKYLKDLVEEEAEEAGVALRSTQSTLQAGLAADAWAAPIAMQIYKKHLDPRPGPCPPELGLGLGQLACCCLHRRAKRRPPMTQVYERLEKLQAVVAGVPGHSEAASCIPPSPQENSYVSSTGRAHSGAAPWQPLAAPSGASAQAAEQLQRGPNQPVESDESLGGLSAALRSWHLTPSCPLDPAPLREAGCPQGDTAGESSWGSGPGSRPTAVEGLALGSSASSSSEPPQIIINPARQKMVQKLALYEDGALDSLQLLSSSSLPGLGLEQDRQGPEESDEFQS

IC50 (FLT3 [1]; read-out: FLT3 IC50): < 0.5 nM | IC50 (IRAK1): 7 nM | IC50 (IRAK4 [2]): 4 nM | IC50 (MOLM14 D835Y cells): 86 nM | IC50 (MOLM14 F691L cells): 545 nM | IC50 (IRAK4 [3]): 3 nM | IC50 (FLT3 [4]): 388 nM
Compound: CC(O)(c1cn2c(-c3ccnc(N[C@@H]4CCCNC4)n3)cnc2cn1)C(F)(F)F (single isomer, unassigned) [Compound 68]

IC50 (FLT3 [1]; FLT3 IC50): < 0.5 nM | IC50 (IRAK1): 27 nM | IC50 (IRAK4 [2]): 1 nM | IC50 (MOLM14 D835Y cells): 193 nM | IC50 (MOLM14 F691L cells; Homo sapiens, MOLM-14, 48 h): 1220 nM | IC50 (IRAK4 [3]): 24 nM | IC50 (FLT3 [4]; [5]): 1950 nM
Compound: CC(O)(c1cn2c(-c3ccnc(N[C@H]4CNC[C@@H]4F)n3)cnc2cn1)C(F)(F)F (single isomer, unassigned) [Compound 69]

IC50 (FLT3 [1]; read-out: FLT3 IC50): < 0.5 nM | IC50 (IRAK1): 12 nM | IC50 (IRAK4 [2]): 43 nM | IC50 (IRAK4 [3]): 29 nM | IC50 (FLT3 [4]; [5]): 1120 nM
Compound: CC(O)(c1cn2c(-c3ccnc(N[C@H]4CNCC[C@@H]4F)n3)cnc2cn1)C(F)(F)F (single isomer, unassigned) [Compound 70]

IC50 (FLT3 [1]; FLT3 IC50): < 0.5 nM | IC50 (IRAK1): 8 nM | IC50 (IRAK4 [2]): 2 nM | IC50 (MOLM14 D835Y cells): 486 nM | IC50 (MOLM14 F691L cells; Homo sapiens, MOLM-14, 48 h): 686 nM | IC50 (IRAK4 [3]): 19 nM | IC50 (FLT3 [4]; [5]): 3860 nM
Compound: CC(O)(c1cn2c(-c3cncc(N[C@H]4CNCC[C@@H]4F)n3)cnc2cn1)C(F)(F)F (single isomer, unassigned) [Compound 76]

IC50 (FLT3 [1]; FLT3 IC50): < 0.5 nM | IC50 (IRAK1): 65 nM | IC50 (IRAK4 [2]): 1 nM | IC50 (MOLM14 D835Y cells; Homo sapiens, MOLM-14, 48 h): 19 nM | IC50 (MOLM14 F691L cells; Homo sapiens, MOLM-14, 48 h): 31 nM | IC50 (IRAK4 [3]): < 0.5 nM | IC50 (FLT3 [4]; [5]): 22 nM
Compound: FC(F)COc1ccn2c(-c3cncc(N[C@H]4CNCC[C@@H]4F)n3)cnc2c1 [Compound 9, 6-(7-(2,2-difluoroethoxy)imidazo[1,2-a]pyridin-3-yl)-N-((3S,4S)-4-fluoropiperidin-3-yl)pyrazin-2-amine]

IC50 (FLT3 [1]; FLT3 IC50): < 0.5 nM | IC50 (IRAK1): 69 nM | IC50 (IRAK4 [2]): 4 nM | IC50 (MOLM14 D835Y cells; Homo sapiens, MOLM-14, 48 h): 77 nM | IC50 (MOLM14 F691L cells; Homo sapiens, MOLM-14, 48 h): 154 nM | IC50 (IRAK4 [3]): 10 nM | IC50 (FLT3 [4]; [5]): 367 nM
Compound: FC(F)Oc1ccn2c(-c3cncc(N[C@H]4CNCC[C@@H]4F)n3)cnc2c1 [Compound 15, 6-(7-(difluoromethoxy)imidazo [1,2-a]pyridin-3-yl)-N-((3S,4S)-4-fluoropiperidin-3-yl)pyrazin-2-amine]

IC50 (FLT3 [1]; FLT3 IC50): 1 nM | IC50 (IRAK1): 116 nM | IC50 (IRAK4 [2]): 3 nM | IC50 (IRAK4 [3]): 0.8 nM | IC50 (FLT3 [4]; [5]): 2820 nM
Compound: CC(C)(O)c1ccc2ncc(-c3cncc(N[C@H]4CNCC[C@@H]4F)n3)n2c1 [Compound 18, 2-(3-(6-(((3S,4S)-4-fluoropiperidin-3-yl)amino)pyrazin-2-yl)imidazo[1,2-a]pyridin-6-yl)propan-2-ol]

IC50 (FLT3 [1]; FLT3 IC50): < 0.5 nM | IC50 (IRAK1): 0.5 nM | IC50 (IRAK4 [2]): < 0.5 nM | IC50 (MOLM14 D835Y cells; Homo sapiens, MOLM-14, 48 h): 27 nM | IC50 (MOLM14 F691L cells; Homo sapiens, MOLM-14, 48 h): 34 nM | IC50 (IRAK4 [3]): < 0.5 nM | IC50 (FLT3 [4]; [5]): 159 nM
Compound: COc1cc2ncc(-c3cncc(N[C@H]4CNCC[C@@H]4F)n3)n2cc1C(C)(C)O [Compound 21, 2-(3-(6-(((3S,4S)-4-fluoropiperidin-3-yl)amino)pyrazin-2-yl)-7-methoxyimidazo[1,2-a]pyridin-6-yl)propan-2-ol]

IC50 (FLT3 [1]; FLT3 IC50): < 0.5 nM | IC50 (IRAK1): 30 nM | IC50 (IRAK4 [2]): 2 nM | IC50 (MOLM14 D835Y cells; Homo sapiens, MOLM-14, 48 h): 7 nM | IC50 (MOLM14 F691L cells; Homo sapiens, MOLM-14, 48 h): 55 nM
Compound: FC(F)COc1ccn2c(-c3ccnc(N[C@H]4CNCC[C@@H]4F)n3)cnc2c1 [Compound 33, 4-(7-(2,2-difluoroethoxy)imidazo[1,2-a]pyridin-3-yl)-N-((3S,4S)-4-fluoropiperidin-3-yl)pyrimidin-2-amine]
Excess HSA Score (MOLM14(D835Y) cells; [6]): 684.1 | Excess HSA Score (MOLM14(D835Y) cells; combination with AMG-232): −604.4 | Excess HSA Score (MOLM14(D835Y) cells; combination with AZD-5363): 320.5 | Excess HSA Score (MOLM14(D835Y) cells; [7]): −279.9 | Excess HSA Score (MOLM14(D835Y) cells; combination with Ivosidenib): −12.14 | Excess HSA Score (MOLM14(D835Y) cells; combination with Lenalidomide): −11.33 | Excess HSA Score (MOLM14(D835Y) cells; combination with Palbociclib): 347 | Excess HSA Score (MOLM14(D835Y) cells; combination with Prednisolone): −659.1 | Excess HSA Score (MOLM14(D835Y) cells; combination with SNDX-5613): 95.25 | Excess HSA Score (MOLM14(D835Y) cells; combination with TNO-155): 177.1 | Excess HSA Score (MOLM14(D835Y) cells; combination with Trametinib): −226.8 | Excess HSA Score (MOLM14(D835Y) cells; combination with Ulixertinib): −441.5 | Excess HSA Score (MOLM14(D835Y) cells; [8]): −315.6 | Comments (MOLM14(D835Y) cells; combination with Prednisolone): Synergistic | Comments (MOLM14(D835Y) cells; combination with SNDX-5613): Antagonistic | Excess HSA Score (THP1 cells; [6]): −13.85 | Excess HSA Score (THP1 cells; combination with AMG-232): −215.5 | Excess HSA Score (THP1 cells; combination with AZD-5363): −132.5 | Excess HSA Score (THP1 cells; [7]): 545.1487 | Excess HSA Score (THP1 cells; combination with Ivosidenib): −154.2 | Excess HSA Score (THP1 cells; combination with Lenalidomide): 178.6 | Excess HSA Score (THP1 cells; combination with Palbociclib): −194.6 | Excess HSA Score (THP1 cells; combination with Prednisolone): 467.2 | Excess HSA Score (THP1 cells; combination with SNDX-5613): 587.7 | Excess HSA Score (THP1 cells; combination with TNO-155): −195.2 | Excess HSA Score (THP1 cells; combination with Trametinib): −463.7 | Excess HSA Score (THP1 cells; combination with Ulixertinib): −63.1 | Excess HSA Score (THP1 cells; [8]): −1595 | Comments (THP1 cells; combination with Lenalidomide): Antagonistic | Comments (THP1 cells; [8]): Synergistic

IC50 (FLT3 [1]; FLT3 IC50): < 0.5 nM | IC50 (IRAK1): 158 nM | IC50 (IRAK4 [2]): 4 nM | IC50 (IRAK4 [3]): 2 nM | IC50 (FLT3 [4]; [5]): 137 nM
Compound: CC(C)(O)c1ccc2ncc(-c3ccnc(N[C@H]4CNCC[C@@H]4F)n3)n2c1 [Compound 42, 2-(3-(2-(((3S,4S)-4-fluoropiperidin-3-yl)amino)pyrimidin-4-yl)imidazo[1,2-a]pyridin-6-yl)propan-2-ol]
